Key:
[1] = compound: CC(=O)O[C@H]1C(=O)[C@@]2(C)[C@H]([C@H](OC(=O)c3ccccc3)[C@]3(O)C[C@H](OC(=O)[C@H](O)[C@@H](NC(=O)c4ccccc4)c4ccccc4)C(C)=C1C3(C)C)[C@]1(OC(C)=O)CO[C@@H]1C[C@@H]2O [Paclitaxel]
[2] = compound: CC(=O)c1c(C)c2cnc(Nc3ccc(N4CCN(CCOCCOCCOCCNC(=O)COc5cccc6c5C(=O)N(C5CCC(=O)NC5=O)C6=O)CC4)cn3)nc2n(C2CCCC2)c1=O [BSJ-03-123]
[3] = compound: CC1(CCN(CC1)C2=CN=C(C(=N2)N)C3=C(C(=CC=C3)Cl)Cl)N [SHP099]
[4] = compound: CCN1CCN(Cc2ccc(Nc3ncc(F)c(-c4cc(F)c5nc(C)n(C(C)C)c5c4)n3)nc2)CC1
[5] = compound: CCc1cnn2c(NCc3ccc[n+]([O-])c3)cc(N3CCCC[C@H]3CCO)nc12
[6] = compound: COc1cc2nccc(Oc3ccc(NC(=O)C4(C(=O)Nc5ccc(F)cc5)CC4)cc3)c2cc1OC [Cabozantinib]
[7] = compound: NC1(C(=O)N[C@@H](CCO)c2ccc(Cl)cc2)CCN(c2nc[nH]c3nccc2-3)CC1 [AZD5363]
[8] = compound: Nc1cc(C(F)(F)F)c(-c2cc(N3CCOCC3)nc(N3CCOCC3)n2)cn1 [Buparlisib/NVP-BKM120]
[9] = compound: O=C(CCCCCCC(=O)Nc1ccccc1)NO [Vorinostat]
[10] = compound: C=CC(=O)Nc1ccc(C(=O)Nc2[nH]nc3c2CN(C(=O)N[C@H](CN(C)C)c2ccccc2)C3(C)C)cc1 [YKL-5-124]; assay: GR value, 72 h; higher = faster growth (1 = untreated, <0 = killing);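 note: breast cancer and non-malignant breast epithelial lines, nine half-log doses, viable cells counted by Hoechst and LIVE/DEAD dye imaging versus time-zero plates and DMSO controls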
[11] = compound: CC(=O)c1c(C)c2cnc(Nc3ccc(N4CCNCC4)cn3)nc2n(C2CCCC2)c1=O; assay: as above
[12] = compound: CCN1CCN(Cc2ccc(Nc3ncc(F)c(-c4cc(F)c5nc(C)n(C(C)C)c5c4)n3)nc2)CC1; assay: as above
[13] = compound: CCc1cnn2c(NCc3ccc[n+]([O-])c3)cc(N3CCCC[C@H]3CCO)nc12; assay: as above
[14] = compound: CN(C)C(=O)c1cc2cnc(Nc3ccc(N4CCNCC4)cn3)nc2n1C1CCCC1 [LEE011/Ribociclib]; assay: as above
[15] = compound: CN(C)C/C=C/C(=O)Nc1ccc(C(=O)N2CCC[C@@H](Nc3ncc(Cl)c(-c4c[nH]c5ccccc45)n3)C2)cc1 [THZ531]; assay: as above
[16] = compound: CN(C)C/C=C/C(=O)Nc1ccc(C(=O)Nc2cccc(Nc3ncc(Cl)c(-c4c[nH]c5ccccc45)n3)c2)cc1 [THZ1]; assay: as above
[17] = compound: CN1CC[C@H](c2c(O)cc(O)c3c(=O)cc(-c4ccccc4Cl)oc23)[C@H](O)C1 [Flavopiridol]; assay: as above
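Throughout, for GR50, 72 h: breast cancer and non-malignant breast epithelial cell lines, Deep Dye Drop or Dye Drop imaging, nine half-log doses, GR normalized to time-zero plates and DMSO-only controls.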

HTERT_HME1 was tested, and the “GR50, 72 h” value [1] was 0.00317 µM, the “GR50, 72 h” value [2] was 0.366 µM and the “GR50, 72 h” value [3] was over 10 µM. The “GR50, 72 h” value [4] was 0.199 µM, the “GR50, 72 h” value [5] was 0.0121 µM and the “GR50, 72 h” value [6] was 3.24 µM. The “GR50, 72 h” value [7] was over 10 µM, the “GR50, 72 h” value [8] was 1.15 µM and the “GR50, 72 h” value [9] was 3.02 µM. For the same cell line, the GR value ([10]; 0.001 µM) was 0.41 GR, the GR value ([10]; 0.003162 µM) was 0.245 GR and the GR value ([10]; 0.01 µM) was 0.16 GR. It also gave a GR value ([10]; 0.03162 µM) of 0.177 GR, a GR value ([10]; 0.1 µM) of 0.0758 GR and a GR value ([10]; 0.3162 µM) of 0.0849 GR. The GR value ([10]; 1 µM) was 0.0535 GR, the GR value ([10]; 3.162 µM) was -0.036 GR and the GR value ([10]; 10 µM) was -0.144 GR. It also gave a GR value ([11]; 0.0003162 µM) of 1.03 GR, a GR value ([11]; 0.001 µM) of 1.06 GR and a GR value ([11]; 0.003162 µM) of 1.03 GR. For the same cell line, the GR value ([11]; 0.01 µM) was 0.956 GR, the GR value ([11]; 0.03162 µM) was 0.796 GR and the GR value ([11]; 0.1 µM) was 0.615 GR. The GR value ([11]; 0.3162 µM) was 0.458 GR, the GR value ([11]; 1 µM) was 0.354 GR and the GR value ([11]; 3.162 µM) was 0.235 GR. The GR value ([12]; 0.001 µM) was 1.05 GR, the GR value ([12]; 0.003162 µM) was 0.987 GR and the GR value ([12]; 0.01 µM) was 0.867 GR. The GR value ([12]; 0.03162 µM) was 0.718 GR, the GR value ([12]; 0.1 µM) was 0.588 GR and the GR value ([12]; 0.3162 µM) was 0.433 GR. It also gave a GR value ([12]; 1 µM) of 0.279 GR, a GR value ([12]; 3.162 µM) of 0.136 GR and a GR value ([12]; 10 µM) of 0.0346 GR. The GR value ([13]; 0.0001 µM) was 1.08 GR, the GR value ([13]; 0.0003162 µM) was 1.07 GR and the GR value ([13]; 0.001 µM) was 1.1 GR. For the same cell line, the GR value ([13]; 0.003162 µM) was 1.09 GR, the GR value ([13]; 0.01 µM) was 0.754 GR and the GR value ([13]; 0.03162 µM) was -0.268 GR. For the same cell line, the GR value ([13]; 0.1 µM) was -0.267 GR, the GR value ([13]; 0.3162 µM) was -0.27 GR and the GR value ([13]; 1 µM) was -0.28 GR. For the same cell line, the GR value ([14]; 0.001 µM) was 0.864 GR, the GR value ([14]; 0.003162 µM) was 0.776 GR and the GR value ([14]; 0.01 µM) was 0.741 GR. For the same cell line, the GR value ([14]; 0.03162 µM) was 0.737 GR, the GR value ([14]; 0.1 µM) was 0.623 GR and the GR value ([14]; 0.3162 µM) was 0.568 GR. It also gave a GR value ([14]; 1 µM) of 0.538 GR, a GR value ([14]; 3.162 µM) of 0.467 GR and a GR value ([14]; 10 µM) of 0.29 GR. The GR value ([15]; 0.0001 µM) was 0.956 GR, the GR value ([15]; 0.0003162 µM) was 0.956 GR and the GR value ([15]; 0.001 µM) was 0.939 GR. For the same cell line, the GR value ([15]; 0.003162 µM) was 1.03 GR, the GR value ([15]; 0.01 µM) was 1.11 GR and the GR value ([15]; 0.03162 µM) was 1.02 GR. The GR value ([15]; 0.1 µM) was 0.889 GR, the GR value ([15]; 0.3162 µM) was 0.179 GR and the GR value ([15]; 1 µM) was -0.207 GR. For the same cell line, the GR value ([16]; 0.0001 µM) was 1.1 GR, the GR value ([16]; 0.0003162 µM) was 0.944 GR and the GR value ([16]; 0.001 µM) was 0.928 GR. It also gave a GR value ([16]; 0.003162 µM) of 0.72 GR, a GR value ([16]; 0.01 µM) of -0.0367 GR and a GR value ([16]; 0.03162 µM) of -0.275 GR. It also gave a GR value ([16]; 0.1 µM) of -0.295 GR, a GR value ([16]; 0.3162 µM) of -0.319 GR and a GR value ([16]; 1 µM) of -0.497 GR. For the same cell line, the GR value ([17]; 0.0001 µM) was 1 GR, the GR value ([17]; 0.0003162 µM) was 0.975 GR and the GR value ([17]; 0.001 µM) was 0.942 GR. It also gave a GR value ([17]; 0.003162 µM) of 0.876 GR, a GR value ([17]; 0.01 µM) of 0.892 GR and a GR value ([17]; 0.03162 µM) of 0.806 GR. It also gave a GR value ([17]; 0.1 µM) of 0.536 GR, a GR value ([17]; 0.3162 µM) of 0.155 GR and a GR value ([17]; 1 µM) of -0.408 GR.

— the supplement of paper PMC9663587
